Measured values taken from US10172830B2, “Pyrazolone compounds having human neutrophil elastase inhibitory properties” (CHIESI FARMACEUTICI S.P.A., priority 2016, dated 2019).

Biological target: T1, human neutrophil elastase (HNE) (Homo sapiens, UniProt P08246)
T1 construct: purchased Sigma E8140
T1 sequence (P08246 30-247 limits assumed): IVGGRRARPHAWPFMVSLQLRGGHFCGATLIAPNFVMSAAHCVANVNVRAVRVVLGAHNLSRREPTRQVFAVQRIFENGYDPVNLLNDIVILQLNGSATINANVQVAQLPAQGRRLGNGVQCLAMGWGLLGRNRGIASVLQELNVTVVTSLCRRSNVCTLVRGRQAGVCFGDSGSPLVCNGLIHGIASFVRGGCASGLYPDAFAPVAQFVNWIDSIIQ
Test: HNE enzyme assay (human neutrophil elastase enzyme activity assay)
Assay type: biochemical
Settings: human leukocyte elastase 0.00072 U/mL; substrate MeOSuc-Ala-Ala-Pro-Val-AMC 100 μM; 25° C. for 30 minutes; at least two separate experiments; read-out: HNE inhibition (HNE enzyme inhibition, IC50 values)
Description: Compounds of the present invention were tested for potency in a human neutrophil elastase (HNE) enzyme activity assay.
Assays were performed in 96-well plates in a total assay volume of 100 μL. The final concentration of elastase enzyme (human leukocyte elastase, Sigma E8140) was 0.00072 U/mL. The peptide substrate (MeOSuc-Ala-Ala-Pro-Val-AMC, Calbiochem #324740) was used at a final concentration of 100 μM. The final concentration of DMSO was 1% in the assay buffer (0.05M Tris.HCl, 0.1M NaCl, 0.1M CaCl2, 0.0005% brij-35, pH 7.5). The enzymatic reaction was started by addition of the enzyme and incubated at 25° C. for 30 minutes. After incubation, the reaction was stopped by addition of soybean trypsin inhibitor (Sigma T9003) at a final concentration of 50 μg/well. Fluorescence was measured using a Molecular Devices fluorescence plate reader using 380 nm excitation and 460 nm emission wavelengths.
A dose response to each compound was performed and the effect of compound in each experiment was expressed as a percentage inhibition of the control enzyme fluorescence. Dose response curves were plotted and compound potency (IC50) was determined. Compounds were tested in at least two separate experiments.

Row | IC50 [nM] | SMILES
1 | < 1 | CN(C)Cc1cnc(C(C)(C)NC(=O)c2c(-c3ccnn3-c3ccc(C#N)cc3)n(C)n(-c3cccc(C(F)(F)F)c3)c2=O)o1 [Example 10, 2′-(4-Cyano-phenyl)-2-methyl-5-oxo-1-(3-trifluoromethyl-phenyl)-2,5-dihydro-1H,2′H-[3,3′]bipyrazolyl-4-carboxylic acid [1-(5-dimethylaminomethyl-oxazol-2-yl)-1-methyl-ethyl]-amide]
2 | 1 to 10 | Cn1c(-c2ccnn2-c2ccc(C#N)cc2)c(C(=O)NCCC[N+](C)(C)C)c(=O)n1-c1cccc(C(F)(F)F)c1 [Example 20, (3-{[2′-(4-Cyano-phenyl)-2-methyl-5-oxo-1-(3-trifluoromethyl-phenyl)-2,5-dihydro-1H,2′H-[3,3′]bipyrazolyl-4-carbonyl]-amino}-propyl)-trimethyl-ammonium benzene sulphonate]
3 | < 1 | CN(C)C1CCN(C(=O)[C@H]2CC[C@H](NC(=O)c3c(-c4ccnn4-c4ccc(C#N)cc4)n(C)n(-c4cccc(C(F)(F)F)c4)c3=O)CC2)CC1 [Example 14, 2′-(Trans-4-cyano-phenyl)-2-methyl-5-oxo-1-(3-trifluoromethyl-phenyl)-2,5-dihydro-1H,2′H-[3,3′]bipyrazolyl-4-carboxylic acid [4-(4-dimethylamino-piperidine-1-carbonyl)-cyclohexyl]-amide]
4 | < 1 | CCOC(=O)c1c(-c2ccnn2-c2ccc(C#N)cc2)n(CC)n(-c2cccc(C(F)(F)F)c2)c1=O [Example 71, 2′-(4-Cyano-phenyl)-2-ethyl-5-oxo-1-(3-trifluoromethyl-phenyl)-2,5-dihydro-1H,2′H-[3,3′]bipyrazolyl-4-carboxylic acid ethyl ester]
5 | < 1 | Cn1c(-c2ccnn2-c2ccc(C#N)cc2)c(C(=O)NC2CCN(C(=O)C[N+](C)(C)Cc3ccccc3)CC2)c(=O)n1-c1cccc(C(F)(F)F)c1 [Example 43, Benzyl-[2-(4-{[2′-(4-cyano-phenyl)-2-methyl-5-oxo-1-(3-trifluoromethyl-phenyl)-2,5-dihydro-1H,2′H-[3,3′]bipyrazolyl-4-carbonyl]-amino}-piperidin-1-yl)-2-oxo-ethyl]-dimethyl-ammonium bromide]
6 | < 1 | Cn1c(-c2ccnn2-c2ccc(C#N)cc2)c(C(=O)N[C@H]2CC[C@H](C(=O)OC3CC[N+](C)(C)CC3)CC2)c(=O)n1-c1cccc(C(F)(F)F)c1 [Example 59, 4-(Trans-4-{[2′-(4-cyano-phenyl)-2-methyl-5-oxo-1-(3-trifluoromethyl-phenyl)-2,5-dihydro-1H,2′H-[3,3′]bipyrazolyl-4-carbonyl]-amino}-cyclohexanecarbonyloxy)-1,1-dimethyl-piperidinium benzene sulphonate]
7 | < 1 | Cn1c(-c2nccn2-c2ccc(C#N)cc2)c(C(=O)NC2CCCC2)c(=O)n1-c1cccc(C(F)(F)F)c1 [Example 72, 5-[1-(4-Cyano-phenyl)-1H-imidazol-2-yl]-1-methyl-3-oxo-2-(3-trifluoromethyl-phenyl)-2,3-dihydro-1H-pyrazole-4-carboxylic acid cyclopentyl-amide]
8 | < 1 | Cn1c(-c2ccnn2-c2ccc(C#N)cc2)c(C(=O)N[C@H]2CC[C@H](C[N+](C)(C)Cc3ccccc3)CC2)c(=O)n1-c1cccc(C(F)(F)F)c1 [Example 25, Benzyl-(trans-4-{[2′-(4-cyano-phenyl)-2-methyl-5-oxo-1-(3-trifluoromethyl-phenyl)-2,5-dihydro-1H,2′H-[3,3′]bipyrazolyl-4-carbonyl]-amino}-cyclohexylmethyl)-dimethyl-ammonium bromide]
9 | < 1 | C[C@H](NC(=O)c1c(-c2ccnn2-c2ccc(C#N)cc2)n(C)n(-c2cccc(C(F)(F)F)c2)c1=O)C(=O)N(C)C1CC[N+](C)(C)CC1 [Example 56, 4-[((S)-2-{[2′-(4-Cyano-phenyl)-2-methyl-5-oxo-1-(3-trifluoromethyl-phenyl)-2,5-dihydro-1H,2′H-[3,3′]bipyrazolyl-4-carbonyl]-amino}-propionyl)-methyl-amino]-1,1-dimethyl-piperidinium benzene sulphonate]
10 | < 1 | Cn1c(-c2ccnn2-c2ccc(C#N)cc2)c(C(=O)N[C@H]2C[C@H](c3ncc(C[N+](C)(C)C)o3)C2)c(=O)n1-c1cccc(C(F)(F)F)c1 [Example 68, [2-(Trans-3-{[2′-(4-cyano-phenyl)-2-methyl-5-oxo-1-(3-trifluoromethyl-phenyl)-2,5-dihydro-1H,2′H-[3,3′]bipyrazolyl-4-carbonyl]-amino}-cyclobutyl)-oxazol-5-ylmethyl]-trimethyl-ammonium benzene sulphonate]
11 | < 1 | Cn1c(-c2ccnn2-c2ccc(C#N)cc2)c(C(=O)N[C@H]2CC[C@H](C[n+]3ccccc3)CC2)c(=O)n1-c1cccc(C(F)(F)F)c1 [Example 69, 1-(4-{[2′-(4-Cyano-phenyl)-2-methyl-5-oxo-1-(3-trifluoromethyl-phenyl)-2,5-dihydro-1H,2′H-[3,3′]bipyrazolyl-4-carbonyl]-amino}-cyclohexylmethyl)-pyridinium bromide]
12 | < 1 | CCNC(=O)c1c(-c2ccnn2-c2ccc(C#N)cc2)n(C)n(-c2cccc(C(F)(F)F)c2)c1=O [Example 3, 2′-(4-Cyano-phenyl)-2-methyl-5-oxo-1-(3-trifluoromethyl-phenyl)-2,5-dihydro-1H,2′H-[3,3′]bipyrazolyl-4-carboxylic acid ethylamide]
13 | < 1 | Cn1c(-c2ccnn2-c2ccc(C#N)cc2)c(C(=O)N[C@H]2CC[C@H](C(=O)OCC[N+](C)(C)C)CC2)c(=O)n1-c1cccc(C(F)(F)F)c1 [Example 65, [2-(Trans-4-{[2′-(4-cyano-phenyl)-2-methyl-5-oxo-1-(3-trifluoromethyl-phenyl)-2,5-dihydro-1H,2′H-[3,3′]bipyrazolyl-4-carbonyl]-amino}-cyclohexanecarbonyloxy)-ethyl]-trimethyl-ammonium benzene sulphonate]
14 | < 1 | C[C@H](NC(=O)c1c(-c2ccnn2-c2ccc(C#N)cc2)n(C)n(-c2cccc(C(F)(F)F)c2)c1=O)C(=O)N(C)CC[N+](C)(C)C [Example 44, {2-[((S)-2-{[2′-(4-Cyano-phenyl)-2-methyl-5-oxo-1-(3-trifluoromethyl-phenyl)-2,5-dihydro-1H,2′H-[3,3′]bipyrazolyl-4-carbonyl]-amino}-propionyl)-methyl-amino]-ethyl}-trimethyl-ammonium benzene sulphonate]
15 | 1 to 10 | Cn1c(-c2ccnn2-c2ccc(C#N)cc2)c(C(=O)NC[C@H]2CC[C@H]([N+](C)(C)C)CC2)c(=O)n1-c1cccc(C(F)(F)F)c1 [Example 29, [Trans-4-({[2′-(4-cyano-phenyl)-2-methyl-5-oxo-1-(3-trifluoromethyl-phenyl)-2,5-dihydro-1H,2′H-[3,3′]bipyrazolyl-4-carbonyl]-amino}-methyl)-cyclohexyl]-trimethyl-ammonium benzene sulphonate]
16 | < 1 | Cn1c(-c2ccnn2-c2ccc(C#N)cc2)c(C(=O)NC2CCN(C(=O)C3CC[N+](C)(C)CC3)CC2)c(=O)n1-c1cccc(C(F)(F)F)c1 [Example 39, 4-(4-{[2′-(4-Cyano-phenyl)-2-methyl-5-oxo-1-(3-trifluoromethyl-phenyl)-2,5-dihydro-1H,2′H-[3,3′]bipyrazolyl-4-carbonyl]-amino}-piperidine-1-carbonyl)-1,1-dimethyl-piperidinium benzene sulphonate]
